# Patent US10344014B2, “Amorphous form of tetracyclic compound” (Chugai Seiyaku Kabushiki Kaisha, priority 2014, dated 2019)
# Columns and labels:
# Assay type in all cases: physicochemical
# [1] = Solubility of compound A (form I crystals) in solvents (Example 2)
# Experimental: Solubility of 9-ethyl-6,6-dimethyl-8-(4-morpholin-4-yl-piperidin-1-yl)-11-oxo-6,11-dihydro-5H-benzo[b]carbazole-3-carbonitrilemonohydrochloride (hereinafter, a compound A) to each solvent was evaluated.
# 5 mL of each of the solvents described in Table 5 was added to 5 mg of form I crystals of the compound A. When undissolved crystals were observed, the mixture was stirred at room temperature and the crystals were dissolved using ultrasound (step 1). After the processing described, when undissolved crystals were observed the mixture was further stirred in a water bath at about 50° C. (step 2).
# When the crystals were dissolved completely, the form I crystals of the compound A were further added (step 3).
# The procedure of the steps 1 to 3 was repeated.
# For CH2Cl2, the step 2 and the later step were performed at room temperature.
# [2] = Solubility by shake flask method, 37° C. (Example 6)
# Experimental: Solubility of the amorphous form and form I crystals of 9-ethyl-6,6-dimethyl-8-(4-morpholin-4-yl-piperidin-1-yl)-11-oxo-6,11-dihydro-5H-benzo[b]carbazole-3-carbonitrilemonohydrochloride was examined using a shake flask method (37° C.).
# [3] = Stability test of the amorphous form, X-ray powder diffraction after storage (Example 4); design: key to State of the amorphous form after storage (X-ray powder diffraction peak): ◯: no peak of diffraction angle; X: clear peak of diffraction angle
# Experimental: The amorphous form of 9-ethyl-6,6-dimethyl-8-(4-morpholin-4-yl-piperidin-1-yl)-11-oxo-6,11-dihydro-5H-benzo[b]carbazole-3-carbonitrilemonohydrochloride was stored under a certain condition and transition of the state of the amorphous form of the test compound was analyzed using. X-ray power diffraction as in the Test example 1.
# [4] = Acetate buffer pH 4.5, equilibration 1 hour
# [5] = Acetate buffer pH 4.5, equilibration 24 hours, limit of quantitation 0.0004 mg/mL
# [6] = First solution for dissolution test (Japanese Pharmacopoeia, 16th edition), equilibration 1 hour
# [7] = First solution for dissolution test (Japanese Pharmacopoeia, 16th edition), equilibration 24 hours
# [8] = Phosphate buffer pH 8.0, equilibration 1 hour, limit of quantitation 0.0004 mg/mL
# [9] = Phosphate buffer pH 8.0, equilibration 24 hours, limit of quantitation 0.0004 mg/mL
# [10] = Simulated intestinal fluid (SIFsp), equilibration 1 hour, limit of quantitation 0.0004 mg/mL
# [11] = Simulated intestinal fluid (SIFsp), equilibration 24 hours, limit of quantitation 0.0004 mg/mL
# [12] = Solution for dissolution test (4% Triton-X100 added to the first solution for dissolution test), equilibration 1 hour
# [13] = Solution for dissolution test (4% Triton-X100 added to the first solution for dissolution test), equilibration 24 hours
smiles,measurement,setting,value
"CCc1cc2c(cc1N1CCC(N3CCOCC3)CC1)C(C)(C)c1[nH]c3cc(C#N)ccc3c1C2=O.Cl [compound A, 9-ethyl-6,6-dimethyl-8-(4-morpholin-4-yl-piperidin-1-yl)-11-oxo-6,11-dihydro-5H-benzo[b]carbazole-3-carbonitrilemonohydrochloride]",Solubility of compound A in solvent (dissolved or not),"[1]; 1,4-dioxane, 1 mg/mL, about 50° C. while stirring",N/N (N: not dissolved)
same,Solubility of compound A in solvent (dissolved or not),"[1]; 1,4-dioxane, 1 mg/mL, room temperature",N/N (N: not dissolved)
same,Solubility of compound A in solvent (dissolved or not),"[1]; 70% EtOH, 1 mg/mL, room temperature",Y/— (Y: dissolved)
same,Solubility of compound A in solvent (dissolved or not),"[1]; 70% EtOH, 2 mg/mL, room temperature",Y/— (Y: dissolved)
same,Solubility of compound A in solvent (dissolved or not),"[1]; 70% EtOH, 4 mg/mL, room temperature",Y/— (Y: dissolved)
same,Solubility of compound A in solvent (dissolved or not),"[1]; 70% EtOH, 6 mg/mL, about 50° C. while stirring",Y (Y: dissolved)
same,Solubility of compound A in solvent (dissolved or not),"[1]; 70% EtOH, 6 mg/mL, room temperature",N (N: not dissolved)
same,Solubility of compound A in solvent (dissolved or not),"[1]; 70% MeCN, 1 mg/mL, room temperature",Y/— (Y: dissolved)
same,Solubility of compound A in solvent (dissolved or not),"[1]; 70% MeCN, 2 mg/mL, room temperature",Y/— (Y: dissolved)
same,Solubility of compound A in solvent (dissolved or not),"[1]; 70% MeCN, 4 mg/mL, room temperature",Y/— (Y: dissolved)
same,Solubility of compound A in solvent (dissolved or not),"[1]; 70% MeCN, 6 mg/mL, room temperature",Y/— (Y: dissolved)
same,Solubility of compound A in solvent (dissolved or not),"[1]; 70% MeCN, 8 mg/mL, room temperature",Y/— (Y: dissolved)
same,Solubility of compound A in solvent (dissolved or not),"[1]; 70% MeCN, 10 mg/mL, about 50° C. while stirring, *formation of solids was observed inside the test tube",Y (Y: dissolved)
same,Solubility of compound A in solvent (dissolved or not),"[1]; 70% MeCN, 10 mg/mL, room temperature",N (N: not dissolved)
same,Solubility of compound A in solvent (dissolved or not),"[1]; 70% MeOH, 1 mg/mL, room temperature",Y/— (Y: dissolved)
same,Solubility of compound A in solvent (dissolved or not),"[1]; 70% MeOH, 2 mg/mL, room temperature",Y/— (Y: dissolved)
same,Solubility of compound A in solvent (dissolved or not),"[1]; 70% MeOH, 4 mg/mL, about 50° C. while stirring",Y (Y: dissolved)
same,Solubility of compound A in solvent (dissolved or not),"[1]; 70% MeOH, 4 mg/mL, room temperature",N (N: not dissolved)
same,Solubility of compound A in THF (dissolved or not),"[1]; 70% THF, 1 mg/mL, room temperature",Y/— (Y: dissolved)
same,Solubility of compound A in THF (dissolved or not),"[1]; 70% THF, 6 mg/mL, room temperature",Y/— (Y: dissolved)
same,Solubility of compound A in THF (dissolved or not),"[1]; 70% THF, 8 mg/mL, room temperature",Y/— (Y: dissolved)
same,Solubility of compound A in THF (dissolved or not),"[1]; 70% THF, 10 mg/mL, room temperature",Y/— (Y: dissolved)
same,Solubility of compound A in THF (dissolved or not),"[1]; 70% THF, 12 mg/mL, room temperature",Y/— (Y: dissolved)
same,Solubility of compound A in THF (dissolved or not),"[1]; 70% THF, 14 mg/mL, room temperature",Y/— (Y: dissolved)
same,Solubility of compound A in solvent (dissolved or not),"[1]; 70% acetone, 1 mg/mL, room temperature",Y/— (Y: dissolved)
same,Solubility of compound A in solvent (dissolved or not),"[1]; 70% acetone, 2 mg/mL, room temperature",Y/— (Y: dissolved)
same,Solubility of compound A in solvent (dissolved or not),"[1]; 70% acetone, 4 mg/mL, room temperature",Y/— (Y: dissolved)
same,Solubility of compound A in solvent (dissolved or not),"[1]; 70% acetone, 6 mg/mL, room temperature",Y/— (Y: dissolved)
same,Solubility of compound A in solvent (dissolved or not),"[1]; 70% acetone, 8 mg/mL, about 50° C. while stirring",Y (Y: dissolved)
same,Solubility of compound A in solvent (dissolved or not),"[1]; 70% acetone, 8 mg/mL, room temperature",N (N: not dissolved)
same,Solubility of compound A in THF (dissolved or not),"[1]; 80% THF, 1 mg/mL, room temperature",Y/— (Y: dissolved)
same,Solubility of compound A in THF (dissolved or not),"[1]; 80% THF, 4 mg/mL, room temperature",Y/— (Y: dissolved)
same,Solubility of compound A in THF (dissolved or not),"[1]; 80% THF, 6 mg/mL, room temperature",Y/— (Y: dissolved)
same,Solubility of compound A in THF (dissolved or not),"[1]; 80% THF, 8 mg/mL, room temperature",Y/— (Y: dissolved)
same,Solubility of compound A in THF (dissolved or not),"[1]; 80% THF, 10 mg/mL, room temperature",Y/— (Y: dissolved)
same,Solubility of compound A in THF (dissolved or not),"[1]; 80% THF, 12 mg/mL, room temperature",Y/— (Y: dissolved)
same,Solubility of compound A in THF (dissolved or not),"[1]; 90% THF, 1 mg/mL, room temperature",Y/— (Y: dissolved)
same,Solubility of compound A in THF (dissolved or not),"[1]; 90% THF, 3 mg/mL, room temperature",Y/— (Y: dissolved)
same,Solubility of compound A in THF (dissolved or not),"[1]; 90% THF, 5 mg/mL, about 50° C. while stirring",N/N (N: not dissolved)
same,Solubility of compound A in THF (dissolved or not),"[1]; 90% THF, 5 mg/mL, room temperature",N/N (N: not dissolved)
same,Solubility of compound A in THF (dissolved or not),"[1]; 100% THF, 1 mg/mL, about 50° C. while stirring",N/N (N: not dissolved)
same,Solubility of compound A in THF (dissolved or not),"[1]; 100% THF, 1 mg/mL, room temperature",N/N (N: not dissolved)
same,Solubility of compound A in solvent (dissolved or not),"[1]; CH2Cl2, 1 mg/mL, room temperature",N/— (N: not dissolved)
same,Solubility of compound A in solvent (dissolved or not),"[1]; DMSO, 1 mg/mL, room temperature",Y/— (Y: dissolved)
same,Solubility of compound A in solvent (dissolved or not),"[1]; DMSO, 2 mg/mL, room temperature",Y/— (Y: dissolved)
same,Solubility of compound A in solvent (dissolved or not),"[1]; DMSO, 4 mg/mL, about 50° C. while stirring",Y (Y: dissolved)
same,Solubility of compound A in solvent (dissolved or not),"[1]; DMSO, 4 mg/mL, room temperature",N (N: not dissolved)
same,Solubility of compound A in solvent (dissolved or not),"[1]; EtOAc, 1 mg/mL, about 50° C. while stirring",N/N (N: not dissolved)
same,Solubility of compound A in solvent (dissolved or not),"[1]; EtOAc, 1 mg/mL, room temperature",N/N (N: not dissolved)
same,Solubility of compound A in solvent (dissolved or not),"[1]; t-BuOH, 1 mg/mL, about 50° C. while stirring",N/N (N: not dissolved)
same,Solubility of compound A in solvent (dissolved or not),"[1]; t-BuOH, 1 mg/mL, room temperature",N/N (N: not dissolved)
"CCc1cc2c(cc1N1CCC(N3CCOCC3)CC1)C(C)(C)c1[nH]c3cc(C#N)ccc3c1C2=O.Cl [Amorphous, 9-ethyl-6,6-dimethyl-8-(4-morpholin-4-yl-piperidin-1-yl)-11-oxo-6,11-dihydro-5H-benzo[b]carbazole-3-carbonitrilemonohydrochloride]",Solubility,[2]; [4],0.5 µg/mL
same,Solubility,[2]; [5],0.4 µg/mL
same,Solubility,[2]; [6],4.5 µg/mL
same,Solubility,[2]; [7],2.5 µg/mL
same,Solubility,[2]; [8],<Lower than limit of
same,Solubility,[2]; [9],<Lower than limit of
same,Solubility,[2]; [10],<Lower than limit of
same,Solubility,[2]; [11],<Lower than limit of
same,Solubility,[2]; [12],1150.6 µg/mL
same,Solubility,[2]; [13],1155.2 µg/mL
same,Solubility,"[2]; Water, equilibration 1 hour",59.9 µg/mL
same,Solubility,"[2]; Water, equilibration 24 hours",39.3 µg/mL
same,Solubility compared with form I crystals (in words),[2]; shake flask method,higher than that of the form I crystals
same,Physical stability in accelerated test (in words),"[3]; 6 months, 40° C. and 75% RH, sealed condition",hardly crystallized and physically stable
same,Physical stability in long-term stability test (in words),"[3]; 12 months, 30° C. and 75% RH, sealed condition",hardly crystallized and physically stable
same,State of the amorphous form after storage (X-ray powder diffraction peak),"[3]; 25° C./93% RH, Open, 1 month",X
same,State of the amorphous form after storage (X-ray powder diffraction peak),"[3]; 25° C./93% RH, Open, 3 months",X
same,State of the amorphous form after storage (X-ray powder diffraction peak),"[3]; 25° C./93% RH, Open, 6 months",X
same,State of the amorphous form after storage (X-ray powder diffraction peak),"[3]; 30° C./75% RH, Sealed, 3 months",◯
same,State of the amorphous form after storage (X-ray powder diffraction peak),"[3]; 30° C./75% RH, Sealed, 6 months",◯
same,State of the amorphous form after storage (X-ray powder diffraction peak),"[3]; 30° C./75% RH, Sealed, 12 months",◯
same,State of the amorphous form after storage (X-ray powder diffraction peak),"[3]; 40° C./75% RH, Sealed, 1 month",◯
same,State of the amorphous form after storage (X-ray powder diffraction peak),"[3]; 40° C./75% RH, Sealed, 3 months",◯
same,State of the amorphous form after storage (X-ray powder diffraction peak),"[3]; 40° C./75% RH, Sealed, 6 months",◯
"CCc1cc2c(cc1N1CCC(N3CCOCC3)CC1)C(C)(C)c1[nH]c3cc(C#N)ccc3c1C2=O.Cl [Form I crystal, 9-ethyl-6,6-dimethyl-8-(4-morpholin-4-yl-piperidin-1-yl)-11-oxo-6,11-dihydro-5H-benzo[b]carbazole-3-carbonitrilemonohydrochloride]",Solubility,[2]; [4],0.4 µg/mL
same,Solubility,[2]; [5],<Lower than limit of
same,Solubility,[2]; [6],1.2 µg/mL
same,Solubility,[2]; [7],1.3 µg/mL
same,Solubility,[2]; [8],<Lower than limit of
same,Solubility,[2]; [9],<Lower than limit of
same,Solubility,[2]; [10],<Lower than limit of
same,Solubility,[2]; [11],<Lower than limit of
same,Solubility,[2]; [12],364.1 µg/mL
same,Solubility,[2]; [13],410.2 µg/mL
same,Solubility,"[2]; Water, equilibration 1 hour",28.6 µg/mL
same,Solubility,"[2]; Water, equilibration 24 hours",25.1 µg/mL
